Test results as given in ChEMBL document CHEMBL3885861, “Open TG-GATES”.

Species: Rattus norvegicus
Test: Open TG-GATES - Regimen: Single
Type: toxicity, organism-based, Sprague-Dawley
Parameters: regimen Single, gender Male, age 6 weeks
Conditions: in vivo, po, route gavage; for Bas / Eos / Fbg / Hb / Ht / Lym / MCHC / MCV / Mono / Neu / PT / Plat / RBC / WBC / MCH / APTT: tissue Blood; for KIDNEY_L / KIDNEY_R / KIDNEY_TOTAL: tissue Kidney; for LIVER: tissue Liver; for ALT / AST / BUN / CRE / Cl / DBIL / GLC / IP / LDH / Na / RALB / TBIL / TC / TG / TP / gamma-GTP: tissue Plasma
[1] = 20 mg/kg, 3 h, dose level Middle

CC/C(=C(\c1ccccc1)c1ccc(OCCN(C)C)cc1)c1ccccc1 [TAMOXIFEN]
Bas (6 mg/kg, 3 h, dose level Low): 0% | Eos (6 mg/kg, 3 h, dose level Low): 1% | Fbg (6 mg/kg, 3 h, dose level Low): 247 mg/dL | Hb (6 mg/kg, 3 h, dose level Low): 13.1 g/dL | Ht (6 mg/kg, 3 h, dose level Low): 39.6% | Lym (6 mg/kg, 3 h, dose level Low): 78.4% | MCHC (6 mg/kg, 3 h, dose level Low): 33.1% | MCV (6 mg/kg, 3 h, dose level Low): 64.6 fL | Mono (6 mg/kg, 3 h, dose level Low): 3.4% | Neu (6 mg/kg, 3 h, dose level Low): 16.6% | PT (6 mg/kg, 3 h, dose level Low): 12 s | Plat (6 mg/kg, 3 h, dose level Low): 122.7 x10_4/uL | RBC (6 mg/kg, 3 h, dose level Low): 612.6 x10_4/ul | WBC (6 mg/kg, 3 h, dose level Low): 83.4 x10_2/uL | KIDNEY_L (6 mg/kg, 3 h, dose level Low): 0.8 g | KIDNEY_R (6 mg/kg, 3 h, dose level Low): 0.9 g | KIDNEY_TOTAL (6 mg/kg, 3 h, dose level Low): 1.7 g | LIVER (6 mg/kg, 3 h, dose level Low): 8.4 g | ALT (6 mg/kg, 3 h, dose level Low): 50.6 IU/L | AST (6 mg/kg, 3 h, dose level Low): 81.2 IU/L | BUN (6 mg/kg, 3 h, dose level Low): 11.2 mg/dL | CRE (6 mg/kg, 3 h, dose level Low): 0.2 mg/dL | Cl (6 mg/kg, 3 h, dose level Low): 107.6 meq/L | DBIL (6 mg/kg, 3 h, dose level Low): 0.032 mg/dL | GLC (6 mg/kg, 3 h, dose level Low): 173.4 mg/dL | IP (6 mg/kg, 3 h, dose level Low): 8.9 mg/dL | LDH (6 mg/kg, 3 h, dose level Low): 58.2 IU/L | Na (6 mg/kg, 3 h, dose level Low): 140.4 meq/L | RALB (6 mg/kg, 3 h, dose level Low): 2.6 g/dL | TBIL (6 mg/kg, 3 h, dose level Low): 0.046 mg/dL | TC (6 mg/kg, 3 h, dose level Low): 80.8 mg/dL | TG (6 mg/kg, 3 h, dose level Low): 113.6 mg/dL | TP (6 mg/kg, 3 h, dose level Low): 5.6 g/dL | gamma-GTP (6 mg/kg, 3 h, dose level Low): 1 IU/L | TERMINAL_BW (6 mg/kg, 6 h, dose level Low): 195.3 g | Bas (6 mg/kg, 6 h, dose level Low): 0% | Eos (6 mg/kg, 6 h, dose level Low): 1% | Fbg (6 mg/kg, 6 h, dose level Low): 258.6 mg/dL | Hb (6 mg/kg, 6 h, dose level Low): 13.1 g/dL | Ht (6 mg/kg, 6 h, dose level Low): 39.6% | Lym (6 mg/kg, 6 h, dose level Low): 77.4% | MCH (6 mg/kg, 6 h, dose level Low): 21.6 pg | MCHC (6 mg/kg, 6 h, dose level Low): 33.2% | MCV (6 mg/kg, 6 h, dose level Low): 65.1 fL | Mono (6 mg/kg, 6 h, dose level Low): 3.2% | Neu (6 mg/kg, 6 h, dose level Low): 18% | PT (6 mg/kg, 6 h, dose level Low): 12.1 s | Plat (6 mg/kg, 6 h, dose level Low): 120.4 x10_4/uL | RBC (6 mg/kg, 6 h, dose level Low): 608.2 x10_4/ul | WBC (6 mg/kg, 6 h, dose level Low): 67.4 x10_2/uL | KIDNEY_L (6 mg/kg, 6 h, dose level Low): 0.9 g | KIDNEY_R (6 mg/kg, 6 h, dose level Low): 0.9 g | KIDNEY_TOTAL (6 mg/kg, 6 h, dose level Low): 1.7 g | LIVER (6 mg/kg, 6 h, dose level Low): 8.2 g | ALT (6 mg/kg, 6 h, dose level Low): 41 IU/L | AST (6 mg/kg, 6 h, dose level Low): 77 IU/L | BUN (6 mg/kg, 6 h, dose level Low): 8.2 mg/dL | CRE (6 mg/kg, 6 h, dose level Low): 0.1 mg/dL | Cl (6 mg/kg, 6 h, dose level Low): 108.2 meq/L | DBIL (6 mg/kg, 6 h, dose level Low): 0.014 mg/dL | GLC (6 mg/kg, 6 h, dose level Low): 180.2 mg/dL | IP (6 mg/kg, 6 h, dose level Low): 10.9 mg/dL | LDH (6 mg/kg, 6 h, dose level Low): 93.6 IU/L | Na (6 mg/kg, 6 h, dose level Low): 141.6 meq/L | RALB (6 mg/kg, 6 h, dose level Low): 2.5 g/dL | TBIL (6 mg/kg, 6 h, dose level Low): 0.05 mg/dL | TC (6 mg/kg, 6 h, dose level Low): 81.4 mg/dL | TG (6 mg/kg, 6 h, dose level Low): 46.6 mg/dL | TP (6 mg/kg, 6 h, dose level Low): 5.4 g/dL | gamma-GTP (6 mg/kg, 6 h, dose level Low): 1.4 IU/L | TERMINAL_BW (6 mg/kg, 9 h, dose level Low): 191.5 g | APTT (6 mg/kg, 9 h, dose level Low): 16 s | Bas (6 mg/kg, 9 h, dose level Low): 0% | Eos (6 mg/kg, 9 h, dose level Low): 1% | Fbg (6 mg/kg, 9 h, dose level Low): 248.8 mg/dL | Hb (6 mg/kg, 9 h, dose level Low): 12.8 g/dL | Lym (6 mg/kg, 9 h, dose level Low): 68.8% | MCH (6 mg/kg, 9 h, dose level Low): 21.5 pg | MCHC (6 mg/kg, 9 h, dose level Low): 33.5% | MCV (6 mg/kg, 9 h, dose level Low): 64.3 fL | Mono (6 mg/kg, 9 h, dose level Low): 2.6% | Neu (6 mg/kg, 9 h, dose level Low): 27.2% | PT (6 mg/kg, 9 h, dose level Low): 12.5 s | Plat (6 mg/kg, 9 h, dose level Low): 116.1 x10_4/uL | RBC (6 mg/kg, 9 h, dose level Low): 597.4 x10_4/ul | WBC (6 mg/kg, 9 h, dose level Low): 68.7 x10_2/uL | KIDNEY_L (6 mg/kg, 9 h, dose level Low): 0.8 g | KIDNEY_R (6 mg/kg, 9 h, dose level Low): 0.8 g | KIDNEY_TOTAL (6 mg/kg, 9 h, dose level Low): 1.6 g | LIVER (6 mg/kg, 9 h, dose level Low): 7.1 g | ALT (6 mg/kg, 9 h, dose level Low): 39 IU/L | AST (6 mg/kg, 9 h, dose level Low): 77.2 IU/L | BUN (6 mg/kg, 9 h, dose level Low): 9.6 mg/dL | CRE (6 mg/kg, 9 h, dose level Low): 0.2 mg/dL | Cl (6 mg/kg, 9 h, dose level Low): 108.2 meq/L | DBIL (6 mg/kg, 9 h, dose level Low): 0.01 mg/dL | GLC (6 mg/kg, 9 h, dose level Low): 186.6 mg/dL | IP (6 mg/kg, 9 h, dose level Low): 11 mg/dL | LDH (6 mg/kg, 9 h, dose level Low): 62.4 IU/L | Na (6 mg/kg, 9 h, dose level Low): 143.6 meq/L | RALB (6 mg/kg, 9 h, dose level Low): 2.5 g/dL | TBIL (6 mg/kg, 9 h, dose level Low): 0.046 mg/dL | TC (6 mg/kg, 9 h, dose level Low): 67.2 mg/dL | TG (6 mg/kg, 9 h, dose level Low): 33.4 mg/dL | TP (6 mg/kg, 9 h, dose level Low): 5.3 g/dL | gamma-GTP (6 mg/kg, 9 h, dose level Low): 1 IU/L | TERMINAL_BW (6 mg/kg, 24 h, dose level Low): 194.3 g | APTT (6 mg/kg, 24 h, dose level Low): 17.4 s | Bas (6 mg/kg, 24 h, dose level Low): 0% | Eos (6 mg/kg, 24 h, dose level Low): 1.2% | Fbg (6 mg/kg, 24 h, dose level Low): 250.2 mg/dL | Hb (6 mg/kg, 24 h, dose level Low): 12.8 g/dL | Ht (6 mg/kg, 24 h, dose level Low): 38.6% | Lym (6 mg/kg, 24 h, dose level Low): 79% | MCH (6 mg/kg, 24 h, dose level Low): 20.9 pg | MCHC (6 mg/kg, 24 h, dose level Low): 33.2% | MCV (6 mg/kg, 24 h, dose level Low): 62.9 fL | Mono (6 mg/kg, 24 h, dose level Low): 3.2% | Neu (6 mg/kg, 24 h, dose level Low): 16.4% | PT (6 mg/kg, 24 h, dose level Low): 12.8 s | Plat (6 mg/kg, 24 h, dose level Low): 113.7 x10_4/uL | RBC (6 mg/kg, 24 h, dose level Low): 613.8 x10_4/ul | WBC (6 mg/kg, 24 h, dose level Low): 80.8 x10_2/uL | KIDNEY_L (6 mg/kg, 24 h, dose level Low): 0.9 g | KIDNEY_R (6 mg/kg, 24 h, dose level Low): 0.9 g | KIDNEY_TOTAL (6 mg/kg, 24 h, dose level Low): 1.7 g | LIVER (6 mg/kg, 24 h, dose level Low): 8.7 g | ALT (6 mg/kg, 24 h, dose level Low): 51 IU/L | AST (6 mg/kg, 24 h, dose level Low): 79.8 IU/L | BUN (6 mg/kg, 24 h, dose level Low): 12.8 mg/dL | CRE (6 mg/kg, 24 h, dose level Low): 0.2 mg/dL | Cl (6 mg/kg, 24 h, dose level Low): 108 meq/L | DBIL (6 mg/kg, 24 h, dose level Low): 0.012 mg/dL | GLC (6 mg/kg, 24 h, dose level Low): 184.4 mg/dL | IP (6 mg/kg, 24 h, dose level Low): 8 mg/dL | LDH (6 mg/kg, 24 h, dose level Low): 55.2 IU/L | Na (6 mg/kg, 24 h, dose level Low): 142.4 meq/L | RALB (6 mg/kg, 24 h, dose level Low): 2.5 g/dL | TBIL (6 mg/kg, 24 h, dose level Low): 0.036 mg/dL | TC (6 mg/kg, 24 h, dose level Low): 61.6 mg/dL | TG (6 mg/kg, 24 h, dose level Low): 64.2 mg/dL | TP (6 mg/kg, 24 h, dose level Low): 5.4 g/dL | gamma-GTP (6 mg/kg, 24 h, dose level Low): 1.4 IU/L | TERMINAL_BW [1]: 194.9 g | APTT [1]: 16.5 s | Bas [1]: 0.2%
